# Experimental data: the supplement of paper PMC5844555
# Tests used:
# Assay in all cases: 3' UTR reporter interaction score (median-centred robust z-score of log2 firefly/Renilla activity); higher = less repression of the 3' UTR reporter
# Settings in all cases: HEK293T; 48 h
# MYC = tested on: MYC
# Summary of the method: (§1)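 Using DharmaFECT Duo, HEK293T cells (10,000/well, 96-well plates) were co-transfected with 2.5 pmol miRNA mimic, 100 ng firefly luc2P reporter containing the gene's 3' UTR and 20 ng Renilla pRL-TK control, and dual-luciferase activity was read 48 h later. The interaction score is the log firefly/Renilla ratio as a per-plate robust z-score (median, median absolute deviation), median-centred per miRNA, averaged over at least two independent screens; lower, more negative values indicate interaction.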
# MYCN = tested on: MYCN
# Summary of the method: as §1
# MYT1L = tested on: MYT1L
# Summary of the method: as §1
# FBXW7 = tested on: FBXW7
# Summary of the method: as §1
# EZH2 = tested on: EZH2
# Summary of the method: as §1
# MYB = tested on: MYB
# Summary of the method: as §1
# BRCA2 = tested on: BRCA2
# Summary of the method: as §1
# HRAS = tested on: HRAS
# Summary of the method: as §1
# PHOX2B = tested on: PHOX2B
# Summary of the method: as §1
# ZEB2 = tested on: ZEB2
# Summary of the method: as §1
# RB1 = tested on: RB1
# Summary of the method: as §1
# NOTCH1 = tested on: NOTCH1
# Summary of the method: as §1
# PHF6 = tested on: PHF6
# Summary of the method: as §1
# TP53 = tested on: TP53
# Summary of the method: as §1
Sequence,3' UTR reporter interaction score (MYC),3' UTR reporter interaction score (MYCN),3' UTR reporter interaction score (MYT1L),3' UTR reporter interaction score (FBXW7),3' UTR reporter interaction score (EZH2),3' UTR reporter interaction score (MYB),3' UTR reporter interaction score (BRCA2),3' UTR reporter interaction score (HRAS),3' UTR reporter interaction score (PHOX2B),3' UTR reporter interaction score (ZEB2),3' UTR reporter interaction score (RB1),3' UTR reporter interaction score (NOTCH1),3' UTR reporter interaction score (PHF6),3' UTR reporter interaction score (TP53)
AAACCUGUGUUGUUCAAGAGUC,-0.2,-0.75,-0.496,0.0167,0.928,-0.47,1.31,0.374,-2.54,-1.07,-0.803,0.0529,-0.148,0.0666
AGGGUGUUUCUCUCAUCUCU,0.84,1.22,-2.32,-0.794,-0.619,1.44,-0.403,0.396,2.27,-0.283,-0.774,-1.24,1.32,0.571
CAUAAAGUAGAAAGCACUAC,0.0993,-0.0538,-0.385,-0.553,-0.0463,-0.0675,0.352,-0.266,0.845,-0.00923,0.941,0.3,-0.673,-0.122
UAGAUAAAAUAUUGGUACCUG,0.271,0.037,-0.105,0.354,0.412,-0.19,0.0137,0.836,-1.45,-0.296,-0.00826,-0.186,-0.242,0.578
UGGUUCUAGACUUGCCAACUA,0.238,0.807,-0.905,0.0613,0.495,0.383,-1.9,0.292,-0.729,1.08,0.0711,-0.954,0.0797,-0.646
GAAGUGCUUCGAUUUUGGGGUGU,0.42,0.643,-0.424,-0.253,-0.43,0.012,0.244,0.659,0.548,0.378,2.22,0.231,0.808,-1.53
GGUCCAGAGGGGAGAUAGG,-0.219,-0.926,0.466,-0.103,-0.024,-0.834,-0.441,–,-0.69,-0.0605,-0.274,0.349,0.39,0.186
AAAGUGCUGUUCGUGCAGGUAG,-0.0736,-0.359,-1.47,0.872,–,-1.38,-0.619,-0.586,1.63,-0.0741,0.0538,0.83,0.684,0.803
UACGUCAUCGUUGUCAUCGUCA,-0.111,-1.02,–,0.256,-0.223,-0.203,0.347,0.167,0.31,-2.2,0.229,-0.131,-0.457,0.00955
GGCUAGCAACAGCGCUUACCU,-0.989,0.326,0.317,0.164,–,-0.249,-0.392,-0.311,0.192,0.537,0.235,-0.508,-0.414,0.432
AGGCACCAGCCAGGCAUUGCUCAGC,-0.313,-0.343,0.327,-2.35,1,0.348,–,-0.411,-2.66,-0.849,0.342,-0.1,0.574,0.444
AAAACGGUGAGAUUUUGUUUU,0.0587,0.148,-0.225,0.403,–,0.737,-0.776,-0.201,1.39,0.0197,-1.03,-1.23,-0.604,-0.39
AAUUGCACGGUAUCCAUCUGUA,1.4,0.653,–,-6.72,-0.862,0.44,0.52,0.777,-1.97,-3.51,1.19,-0.751,0.891,-1.12
UGUAAACAUCCUUGACUGGA,–,-0.313,0.512,0.548,-0.145,0.77,0.0901,0.642,0.574,-1.5,-0.17,-0.407,-0.821,-0.0994
AAACCGUUACCAUUACUGAGUUU,-0.972,-0.445,1.68,-0.543,0.71,–,0.378,-0.683,-1.13,0.377,-0.236,-0.371,0.358,0.812
UUUGGCACUAGCACAUUUUUGC,0.306,0.288,-0.203,-1.69,0.814,–,0.322,0.722,0.531,0.198,0.451,0.319,-0.863,-0.115
CCUAGUAGGUGUCCAGUAAGUGU,0.727,0.245,0.0095,-0.251,-0.633,0.0319,-0.873,-0.971,0.805,–,-1.08,0.26,-0.224,-0.172
AACUGGCCCUCAAAGUCCCGCUUU,0.891,-2.37,-0.278,0.0369,0.347,-3.7,0.335,1.58,0.301,0.222,1.12,-1.04,-1.81,–
AACUGGCCUACAAAGUCCCAG,0.942,-2.47,-0.789,0.16,0.239,-3.25,-0.135,1.01,-0.335,0.719,0.314,-1.05,–,-0.0425
ACUUUAACAUGGAAGUGCUUUCU,0.48,-0.0564,0.13,–,0.735,-0.31,0.253,-0.0142,-0.178,-0.795,–,-0.363,-0.0712,0.121
